# Reference: PMC4957640 (Bioorganic & medicinal chemistry, 2016)
# Legend:
# Assay type in all cases: biochemical
# [1] = target: cloned human μ opioid receptor (MOR) (Homo sapiens, UniProt P35372); test: Inhibition of DAMGO-stimulated [35S]GTPγS binding
# [2] = target: cloned human δ opioid receptor (DOR) (Homo sapiens, UniProt P41143); test: Inhibition of DPDPE-stimulated [35S]GTPγS binding
# [3] = target: cloned human κ opioid receptor (KOR) (Homo sapiens, UniProt P41145); test: Inhibition of U69,593-stimulated [35S]GTPγS binding; settings: for δ/κ: ratio of Ke values, selectivity for KOR relative to DOR (fold)
# Chain of cloned human κ opioid receptor (KOR) (P41145 whole entry): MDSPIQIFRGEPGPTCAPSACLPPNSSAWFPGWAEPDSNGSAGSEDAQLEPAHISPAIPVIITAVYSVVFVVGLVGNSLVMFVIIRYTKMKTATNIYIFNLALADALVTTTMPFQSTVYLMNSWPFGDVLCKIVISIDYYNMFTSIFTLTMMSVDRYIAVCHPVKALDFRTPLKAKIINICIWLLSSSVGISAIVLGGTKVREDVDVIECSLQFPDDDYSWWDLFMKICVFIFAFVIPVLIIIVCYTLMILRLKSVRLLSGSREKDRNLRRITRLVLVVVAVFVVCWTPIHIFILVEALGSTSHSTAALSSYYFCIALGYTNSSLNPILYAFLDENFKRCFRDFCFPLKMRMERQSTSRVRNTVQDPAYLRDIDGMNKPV
# Chain of cloned human μ opioid receptor (MOR) (P35372 whole entry): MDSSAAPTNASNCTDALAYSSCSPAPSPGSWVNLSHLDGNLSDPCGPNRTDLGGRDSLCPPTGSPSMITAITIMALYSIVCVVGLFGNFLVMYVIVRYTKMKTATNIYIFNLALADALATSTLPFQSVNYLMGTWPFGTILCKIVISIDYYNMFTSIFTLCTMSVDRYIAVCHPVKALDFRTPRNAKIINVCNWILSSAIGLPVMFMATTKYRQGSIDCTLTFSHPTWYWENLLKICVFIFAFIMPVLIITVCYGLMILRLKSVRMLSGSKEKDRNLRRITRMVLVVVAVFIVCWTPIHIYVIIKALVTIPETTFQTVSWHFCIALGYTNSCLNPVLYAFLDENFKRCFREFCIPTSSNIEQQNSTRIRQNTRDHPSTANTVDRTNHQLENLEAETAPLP
# Chain of cloned human δ opioid receptor (DOR) (P41143 whole entry): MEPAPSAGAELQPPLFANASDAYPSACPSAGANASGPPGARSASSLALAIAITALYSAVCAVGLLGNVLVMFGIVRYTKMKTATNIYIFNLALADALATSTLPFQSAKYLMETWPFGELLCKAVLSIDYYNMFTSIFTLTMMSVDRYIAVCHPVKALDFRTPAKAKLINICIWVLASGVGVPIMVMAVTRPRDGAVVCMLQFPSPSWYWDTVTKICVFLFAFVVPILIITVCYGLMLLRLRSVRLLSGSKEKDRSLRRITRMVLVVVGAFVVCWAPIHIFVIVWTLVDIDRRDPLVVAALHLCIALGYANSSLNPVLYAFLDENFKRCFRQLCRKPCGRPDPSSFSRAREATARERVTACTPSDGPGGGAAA
Structure (SMILES),Kb [1],Kb [2],Kb [3],δ/κ [3]
"CC(C)[C@@H](CN1CCC(c2cccnc2)CC1)NC(=O)[C@H]1Cc2ccc(O)cc2CN1 [Compound 3a, (3R)-7-Hydroxy-N-{(1S)-2-methyl-1-[(4-pyridin-3-ylpiperidin-1-yl)methyl]propyl}-1,2,3,4-tetrahydroisoquinoline-3-carboxamide]",45.4 ± 15 nM,1140 ± 70 nM,0.51 ± 0.08 nM,"2,235"
"CC(C)[C@@H](CN1CCC(C)(c2cccnc2)CC1)NC(=O)[C@H]1Cc2ccc(O)cc2CN1 [Compound 3b, (3R)-7-Hydroxy-N-{(1S)-2-methyl-1-[(4-methyl-4-pyridin-3-ylpiperidin-1-yl)methyl]propyl}-1,2,3,4-tetrahydroisoquinoline-3-carboxamide]",49.2 ± 14 nM,> 3000 nM,0.18 ± 0.01 nM,">16,700"
"CC(C)[C@@H](CN1CCC(c2ccncc2)CC1)NC(=O)[C@H]1Cc2ccc(O)cc2CN1 [Compound 4a, (3R)-7-Hydroxy-N-{(1S)-2-methyl-1-[(4-pyridin-4-ylpiperidin-1-yl)methyl]propyl}-1,2,3,4-tetrahydroisoquinoline-3-carboxamide]",57.1 ± 15 nM,690 ± 250 nM,0.51 ± 0.14 nM,"1,353"
"CC(C)[C@@H](CN1CCC(c2ccccn2)CC1)NC(=O)[C@H]1Cc2ccc(O)cc2CN1 [Compound 2, (3R)-7-Hydroxy-N-{(1S)-2-methyl-1-[(4-pyridin-2-ylpiperidin-1-yl)methyl]propyl}-1,2,3,4-tetrahydroisoquinoline-3-carboxamide]",14.5 ± 2.6 nM,590 ± 130 nM,0.43 ± 0.12 nM,"1,372"
"CC(C)[C@@H](CN1CCC(C)(c2ccncc2)CC1)NC(=O)[C@H]1Cc2ccc(O)cc2CN1 [Compound 4b, (3R)-7-Hydroxy-N-{(1S)-2-methyl-1-[(4-methyl-4-pyridin-4-ylpiperidin-1-yl)methyl]propyl}-1,2,3,4-tetrahydroisoquinoline-3-carboxamide]",154 ± 56 nM,2510 nM,1.75 ± 0.65 nM,"1,434"
